Assay results: the supplement of paper PMC10307832

What was measured:
Experiment in all cases: relative viability (nuclei count vs DMSO), 5 days (fraction); higher = more cells survive
Tanzisertib + Pemetrexed = compound: O[C@H]1CC[C@H](Nc2ncc3nc(Nc4c(F)cc(F)cc4F)n([C@H]4CCOC4)c3n2)CC1 [Tanzisertib] + Nc1nc2[nH]cc(CCc3ccc(C(=O)N[C@@H](CCC(=O)O)C(=O)O)cc3)c2c(=O)[nH]1 [Pemetrexed] (partner 0.2 µM)
In short: (§1)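 A single step with final 0.05% Triton X-100, 1% formaldehyde and 1 ug/ml Hoechst fixed the cells and stained nuclei 5 days after treatment. Lung cancer cell lines in 1536-well plates had been treated by pin tool the day after seeding with one drug alone or a fixed anchor-drug dose plus five library-drug doses (not always all listed) in √10 steps, and nuclei were counted on 4× images. Relative viability is the ratio of nuclei in treated wells to nuclei in vehicle wells, taken as the median of duplicate plates.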

[1] = compound: C[C@@H](N)c1ccc(C(=O)Nc2ccnc3[nH]ccc23)cc1 + Cc1cc(Nc2cc(N3CCN(C)CC3)nc(Sc3ccc(NC(=O)C4CC4)cc3)n2)n[nH]1 [Tozasertib] (partner 0.1 µM)
In short: as §1

Tanzisertib + Navitoclax = compound: O[C@H]1CC[C@H](Nc2ncc3nc(Nc4c(F)cc(F)cc4F)n([C@H]4CCOC4)c3n2)CC1 [Tanzisertib] + CC1(C)CCC(c2ccc(Cl)cc2)=C(CN2CCN(c3ccc(C(=O)NS(=O)(=O)c4ccc(N[C@H](CCN5CCOCC5)CSc5ccccc5)c(S(=O)(=O)C(F)(F)F)c4)cc3)CC2)C1 [Navitoclax] (partner 0.5 µM)
In short: as §1

[2] = compound: C[C@@H](N)c1ccc(C(=O)Nc2ccnc3[nH]ccc23)cc1 + CC(C)C[C@H](NC(=O)[C@H](Cc1ccccc1)NC(=O)c1cnccn1)B(O)O [Bortezomib] (partner 0.002 µM)
In short: as §1

Cell Line | relative viability (Tanzisertib + Pemetrexed; first compound 0.08 µM) | relative viability (Tanzisertib + Pemetrexed; first compound 0.253 µM) | relative viability (Tanzisertib + Pemetrexed; first compound 0.8 µM) | relative viability (Tanzisertib + Pemetrexed; first compound 2.53 µM) | relative viability (Tanzisertib + Pemetrexed; first compound 8 µM) | relative viability ([1]; first compound 0.04 µM) | relative viability ([1]; first compound 0.1265 µM) | relative viability ([1]; first compound 0.4 µM) | relative viability ([1]; first compound 1.265 µM) | relative viability ([1]; first compound 4 µM) | relative viability (Tanzisertib + Navitoclax; first compound 0.08 µM) | relative viability (Tanzisertib + Navitoclax; first compound 0.253 µM) | relative viability (Tanzisertib + Navitoclax; first compound 0.8 µM) | relative viability (Tanzisertib + Navitoclax; first compound 2.53 µM) | relative viability (Tanzisertib + Navitoclax; first compound 8 µM) | relative viability ([2]; first compound 0.04 µM) | relative viability ([2]; first compound 0.1265 µM) | relative viability ([2]; first compound 0.4 µM) | relative viability ([2]; first compound 1.265 µM) | relative viability ([2]; first compound 4 µM)
NCI-H460 | 0.0668 | 0.0601 | 0.0628 | 0.0601 | 0.0429 | 0.606 | 0.405 | 0.571 | 0.392 | 0.771 | 1.32 | 1.21 | 0.986 | 1.2 | 1.24 | 0.996 | 1.15 | 1.11 | 1.17 | 1.09
LCLC-97TM1 | 0.172 | 0.164 | 0.146 | 0.169 | 0.173 | 0.208 | 0.227 | 0.34 | 0.343 | 0.279 | – | 0.53 | 0.38 | 0.394 | 0.462 | 0.827 | 0.619 | 0.764 | 0.603 | 0.375
COR-L23 | 0.2 | 0.209 | 0.188 | 0.201 | 0.191 | 0.232 | 0.188 | 0.204 | 0.202 | 0.144 | 1.15 | 1.05 | 0.979 | 1.24 | 1.03 | 0.827 | 0.983 | 1.03 | 0.779 | 0.341
NCI-H1355 | 1.07 | 1.06 | 1.05 | 1.07 | 1.03 | 0.605 | 0.552 | 0.562 | 0.565 | 0.555 | 0.954 | 0.923 | 0.961 | 0.985 | 0.944 | 1.04 | 1.22 | 1.35 | – | 1.26
NCI-H1666 | 0.894 | 0.789 | 0.865 | 0.941 | 0.796 | 0.605 | 0.618 | 0.63 | 0.698 | 0.593 | 0.972 | 1.03 | 0.916 | 1.06 | 0.878 | 0.991 | 1.12 | 1.04 | 0.984 | 0.932
EPLC-272H | 0.296 | 0.306 | 0.388 | 0.475 | 0.289 | 0.304 | 0.322 | 0.531 | 0.287 | 0.188 | 1.33 | 1.14 | 0.971 | 1.17 | 1.04 | 1.13 | 0.987 | 1.09 | – | 0.977
ChaGo-K-1 | 0.251 | 0.25 | 0.242 | 0.261 | 0.274 | 0.223 | 0.219 | 0.221 | 0.246 | 0.21 | 1.01 | 1.08 | 1.1 | 0.79 | 0.683 | 1.01 | 1.07 | 1 | – | 0.734
NCI-H1651 | 0.586 | 0.625 | 0.436 | 0.6 | 0.513 | 0.844 | 0.602 | 0.798 | 0.871 | 0.885 | 1.07 | 0.915 | 1.18 | 1.11 | 0.854 | 1.02 | 0.998 | 0.997 | 0.795 | 0.934
HCC-44 | 0.642 | 0.637 | 0.597 | 0.624 | 0.688 | 0.793 | 0.809 | 1.15 | 1.2 | 0.789 | 1.18 | 0.985 | 0.992 | 0.916 | 0.973 | 0.863 | 0.871 | 0.959 | 1.08 | 0.78
SW 1573 | 0.809 | 0.84 | 0.805 | 0.839 | 0.683 | 0.121 | 0.208 | 0.174 | 0.174 | 0.156 | 1.02 | 0.994 | 0.974 | 1.05 | 0.909 | 1.08 | 1.01 | 0.939 | 0.968 | 0.7
PC-3 [JPC-3] | 1.16 | 1.3 | 1.23 | 1.04 | 0.466 | 0.892 | 0.839 | 0.955 | 0.967 | 0.816 | 0.898 | 0.815 | 0.866 | 0.81 | 0.853 | 0.838 | 0.892 | 0.856 | 0.921 | 0.729
LOU-NH91 | 0.42 | 0.42 | 0.399 | 0.403 | 0.387 | 0.556 | 0.609 | 0.607 | 0.504 | 0.417 | 0.81 | 0.664 | 0.747 | 0.675 | 0.497 | 0.504 | 0.56 | 0.515 | 0.468 | 0.429
PC-14 | 0.134 | 0.131 | 0.129 | 0.0897 | 0.104 | 0.518 | 0.577 | 0.543 | 0.385 | 0.429 | 1.03 | 1.05 | 0.934 | 1.02 | 0.736 | 0.832 | 0.836 | 0.874 | 0.923 | 0.755
NCI-H2087 | 0.702 | 0.661 | 0.668 | 0.691 | 0.706 | 0.324 | 0.235 | 0.274 | – | 0.181 | 1.04 | 0.961 | 0.957 | 1.04 | 0.95 | 0.49 | 0.783 | 0.719 | 0.499 | 0.686
LU99A | 0.167 | 0.191 | 0.172 | 0.159 | 0.19 | – | 0.278 | 0.234 | 0.227 | 0.227 | 0.713 | 0.847 | 0.879 | 0.743 | 0.781 | 0.947 | 1.23 | 1.23 | 0.88 | 0.78
BEN | 0.755 | 0.923 | 1 | 0.909 | 0.605 | 0.466 | 0.432 | 0.53 | 0.484 | 0.48 | 0.0685 | 0.0675 | 0.0797 | 0.072 | 0.0632 | 0.765 | 0.736 | 0.875 | 0.909 | 0.457
